Results as given in US4670432A, “Pyrazolopyridine derivatives useful in treating inflammation and allergic conditions” (Beecham Group p.l.c., priority 1984, dated 1987).

What was measured:
[1] = system: mouse sensitised to oxazolone; assay: Mouse Oxazolone Screen (topical anti-inflammatory activity); type: in vivo; conditions: 1 h before oxazolone challenge, ears weighed 24 h later
Description: Compounds were tested for topical anti-inflammatory activity in a screen using the mouse sensitised to oxazolone, by a method modified from that of Dietrich and Hess [Dietrich, F. M., and Hess, R., Int. Arch. Allergy, (1970), 38, 246-259].
Mice were sensitised with oxazolone (2 mg in 20 μl ethanol) on a shaved area of the abdomen. Five days later, the animals received 10 μl THF/MeOH (1:1 v/v) on the right ear, and the test compound in the same solvent on the left ear. One hour later, the animals were challenged with 100 μg oxazolone in 10 μl acetone on each ear. Ear weights were measured 24 h later. Percentage inhibition of the inflammatory swelling refers to the increase in weight of left ears (oxazolone plus compound) compared with solvent-treated negative controls, as a proportion of the increase in weight of right ears (oxazolone alone) over similar controls.

cantharidin mouse ear = assay: Mouse Cantharidin Screen (topical anti-inflammatory activity); type: in vivo; conditions: applied with cantharidin, 24 h
Description: Compounds were tested for topical anti-flammatory activity in a cantharidin mouse ear screen, modified from Swingle et al [Swingle, K. F., Reiter, M. J. and Schwartzmiller, D. H., Arch. Int. Pharmacodyn. (1981), 254, 168-176].
25 μg cantharidin (in 10 μl THF/MeOH) was applied to both ears. Compound, in the same solvent, was applied at the same time, to the left ear only. Ears were weighed 24 h after cantharidin application. Percentage inhibition of the acute inflammatory swelling refers to the increase in weight of left ears (catharidin plus compound) compared with solvent-treated negative controls, as a proportion of the increase in weight of right ears (cantharidin alone) over similar controls.

5-Lipoxygenase = assay: RBL-1 5-Lipoxygenase Screen; type: biochemical; conditions: 20 μM; 10,000 g supernatant from RBL-1 cells, 29° C.
Description: 5-Lipoxygenase enzyme was prepared as a 10,000 g supernatant from RBL-1 cells by the method of Jakschik [Jakschik, B. A., Sun, F. F., Lee, L. M. and Steinhoff, M. M., 1980, Biochem. Biophys. Res. Comm. 95, 103]. The 10,000 g supernatant was diluted with homogenization buffer to the equivalent of 1.5-2.5×10^7 cells ml^-1 and made 2 mM with respect to CaCl2. Aliquots of 0.5 ml were then dispensed into tubes, and incubated at 29° C. with 5 γl ethanol or compound in ethanol at the desired concentration for 2 min. Then [1-^14 C] arachidonic acid was added in buffer to give a final concentration of 6.3. μm and 0.2 μCi per incubation, and the reaction continued at 29° C. for 2 min. The reaction was terminated by adding 1 ml of acetone and cooling on ice. 0.5 ml of ice cold saline and 10 μl of 2N formic acid were added, and the mixture was extracted with 2×2 ml of chloroform. The extract was stored under N2 at -20° C. until analysis by chromatography. Activity was measured as the percentage of total radioactivity found in 5-HETE and 5,12-diHETE, and inhibition calculated as the decrease in formation of the sum of these two species in compound-treated incubates relative to control incubates.

C=CCNc1cc(C)nc2cn[nH]c12 [Example 1, 7-Allylamino-5-methyl-1H-pyrazolo[4,3-b]pyridine]
% Inhibition (inflammatory swelling, ear weight) ([1]; 200 μg/ear): 62%
% Inhibition (acute inflammatory swelling, ear weight) (cantharidin mouse ear; 200 μg/ear): 88%
inhibition (decrease in formation of 5-HETE and 5,12-diHETE) (5-Lipoxygenase): 39%

Cc1cc(NCCO)c2[nH]ncc2n1 [Example 3, 7-[2-Hydroxyethylamino]-5-methyl-1H-pyrazolo[4,3-b]pyridine]
% Inhibition (inflammatory swelling, ear weight) ([1]; 200 μg/ear): 65%
% Inhibition (acute inflammatory swelling, ear weight) (cantharidin mouse ear; 200 μg/ear): 76%

C=CCNc1cc(C)nc2cn(C)nc12 [Example 5, 7-Allylamino-2,5-dimethyl-pyrazolo[4,3-b]pyridine]
% Inhibition (inflammatory swelling, ear weight) ([1]; 200 μg/ear): 71%
% Inhibition (acute inflammatory swelling, ear weight) (cantharidin mouse ear; 200 μg/ear): 68%

Cc1cc(NCCCN(C)C)c2[nH]ncc2n1 [Example 6, 7-[3-Dimethylaminopropylamino]-5-methyl-1H-pyrazolo[4,3-b]pyridine]
% Inhibition (acute inflammatory swelling, ear weight) (cantharidin mouse ear; 500 μg/ear): 97%

COCCNc1cc(C)nc2c[nH]nc12 [Example 4]
% Inhibition (inflammatory swelling, ear weight) ([1]; 200 μg/ear): 52%
% Inhibition (acute inflammatory swelling, ear weight) (cantharidin mouse ear; 200 μg/ear): 57%

Cc1cc(NCCCO)c2[nH]ncc2n1 [Example 2, 7-[3-hydroxypropylamino]-5-methyl-1H-pyrazolo[4,3-b]pyridine]
% Inhibition (inflammatory swelling, ear weight) ([1]; 500 μg/ear): 82%
% Inhibition (acute inflammatory swelling, ear weight) (cantharidin mouse ear; 200 μg/ear): 82%

C=CCNc1ccnc2cn[nH]c12 [Example 7, 7-Allylamino-1H-pyrazolo[4,3-b]pyridine]
% Inhibition (acute inflammatory swelling, ear weight) (cantharidin mouse ear; 500 μg/ear): 83%
